Data published in patent US20230255953A1, “USE OF ROLUPERIDONE IN PREVENTING RELAPSE IN SCHIZOPHRENIA PATIENTS” (Minerva Neurosciences, Inc., priority 2022, published 2023).

System: patients with negative symptoms of schizophrenia
Assay: Study #2 (MIN-101C07) Phase 3: PANSS-derived scores (NSFS, total, subscales, Marder factors)
Format: in vivo, human
Set-up: key to Change from Baseline LS Mean: NSFS (ITT) / Change from Baseline LS Mean: NSFS (mITT): NSFS total ranges 7 to 49; higher = more severe
Conditions: for Change from Baseline LS Mean: Marder's Anxiety/Depression Factor Score / Change from Baseline LS Mean: Marder's Disorganized Thought Factor Score / Change from Baseline LS Mean: Marder's Positive Symptoms Factor Score / Change from Baseline LS Mean: Marder's Uncontrolled Hostility/Excitement Factor Score / Change from Baseline LS Mean: NSFS (ITT) / Change from Baseline LS Mean: NSFS Emotional Experience Score / Change from Baseline LS Mean: NSFS Emotional Expression Score / Change from Baseline LS Mean: PANSS General Psychopathology Subscale / Change from Baseline LS Mean: PANSS Negative Symptoms Subscale / Change from Baseline LS Mean: PANSS Positive Symptoms Subscale / Change from Baseline LS Mean: PANSS Total Score / Effect Size (Cohen's d) vs Placebo: Marder's Anxiety/Depression Factor Score / Effect Size (Cohen's d) vs Placebo: Marder's Disorganized Thought Factor Score / Effect Size (Cohen's d) vs Placebo: Marder's Positive Symptoms Factor Score / Effect Size (Cohen's d) vs Placebo: Marder's Uncontrolled Hostility/Excitement Factor Score / Effect Size (Cohen's d) vs Placebo: NSFS (ITT) / Effect Size (Cohen's d) vs Placebo: NSFS Emotional Experience Score / Effect Size (Cohen's d) vs Placebo: NSFS Emotional Expression Score / Effect Size (Cohen's d) vs Placebo: PANSS General Psychopathology Subscale / Effect Size (Cohen's d) vs Placebo: PANSS Negative Symptoms Subscale / Effect Size (Cohen's d) vs Placebo: PANSS Positive Symptoms Subscale / Effect Size (Cohen's d) vs Placebo: PANSS Total Score / Effect size, change from Baseline in NSFS to Week 12: ITT; for Effect size, change from Baseline in NSFS to Week 12: 64 mg
Text: “PANSS”, as used herein, refers to the positive and negative syndrome scale, which is used by physicians and clinicians to measure the severity of the symptoms in a schizophrenia patient. The scale is divided into three parts, a positive scale, which provides a “PANSS positive subscore”, a negative scale, which provides a “PANSS negative subscore”, and general psychopathology scale. The sum of these three parts provides a PANSS total score, which ranges from 30 to 210 (where higher scores indicate more severe symptoms). (Kay, S. R., et al. “The positive and negative syndrome scale (PANSS) for schizophrenia,” Schizophr Bulletin, 13(2), 261-276 (1987)).
As used herein, PANSS Marder's negative symptoms factor score (“NSFS”), refers to selection of seven of the PANSS items used by physicians and clinicians to measure the severity of the negative symptoms in a schizophrenia patient. (See Tables 5A and 5B.) The NSFS total score ranges from 7 to 49. (Marder, S. R. et al. “The effects of risperidone on the five dimensions of schizophrenia derived by factor analysis: combined results of the North American trials,” J Clin Psychiatry. 1997; 58:538-46.)
The PANSS was designed to be used in patients with schizophrenia to measure the overall severity of schizophrenic symptoms. The scale has been validated in different cultures and languages and is reliable and acceptable to regulatory health authorities as a primary scale to determine efficacy of intervention in schizophrenia. The name refers to the 2 types of symptoms in schizophrenia, as defined by the American Psychiatric Association: positive symptoms, which refer to an excess or distortion of normal functions (e.g., hallucinations and delusions), and negative symptoms, which represent a diminution or loss of normal functions.
The patient is rated from 1 to 7 on 30 different symptoms based on the interview as well as reports of family members or primary care hospital workers. The original PANSS included 3 groups of symptoms and subscale scores Positive, Negative, and General Psychopathology. Since the inception of PANSS, investigators have proposed additional grouping (structures) of PANSS such as the Marder structure (Marder, S. R. et al. “Issues and perspectives in designing clinical trials for negative symptoms in schizophrenia: consensus statements,” Schizophrenia Bulletin Open. 2020; 1(1). doi:10.1093/schizbullopen/sgz001) and the White structure (White, L. et al. “Empirical assessment of the factorial structure of clinical symptoms in schizophrenia”. Psychopathology. 1997; 30263-274).
The PANSS was assessed at the time points described in Table 4.
The PANSS-derived endpoints used in these studies and the integrated analyses are described in Table 5A and a summary of the individual PANSS items used by physicians and clinicians to measure the severity of the symptoms in a schizophrenia patient is provided in Table 5B. The scale is divided into three parts, a positive scale, which provides a “PANSS positive subscore”, a negative scale, which provides a “PANSS negative subscore”, and general psychopathology scale. The sum of these three parts provides a PANSS total score, which ranges from 30 to 210 (where higher scores indicate more severe symptoms). (See Kay, S. R., et al. “The positive and negative syndrome scale (PANSS) for schizophrenia,” Schizophr Bulletin, 13(2), 261-276 (1987) and Gopal, S., et al. “Improvement of Negative Symptoms in Schizophrenia with Paliperidone Palmitate 1-Month and 3-Month Long-Acting Injectables: Results from a Phase 3 Non-Inferiority Study” Neuropsychiatric Disease and Treatment, 681-690, DOI: 10.2147/NDT.5226296, both of which are incorporated by reference.)
Study #2 (also referred to as “MIN101C07”) was a Phase 3, randomized, DB, placebo-controlled, parallel-group 12-week study to evaluate the efficacy and safety of Roluperidone in patients ≥18 years to ≤55 years with negative symptoms of schizophrenia, followed by a 40-week OL extension. […]

1H-Isoindol-1-one,2-[ [1-[2-(4-fluorophenyl)-2-oxoethyl]-4-piperidinyl]methyl]-2,3-dihydro-, hydrochloride, hydrate (1:1:2) [Roluperidone]
Effect Size (Cohen's w) vs Placebo: 20% reduction in NSFS responders (32 mg QD, Week 12 DB): 0.05 | Effect Size (Cohen's w) vs Placebo: 30% reduction in NSFS responders (32 mg QD, Week 12 DB): 0.04 | Number of Patients with 20% reduction in NSFS at Week 12 (32 mg QD, Week 12 DB): 32/116 | Number of Patients with 30% reduction in NSFS at Week 12 (32 mg QD, Week 12 DB): 14/116 | Patients with 20% reduction in NSFS at Week 12 (%) (32 mg QD, Week 12 DB): (28%) | Patients with 30% reduction in NSFS at Week 12 (%) (32 mg QD, Week 12 DB): (12%) | Change from Baseline LS Mean: Marder's Anxiety/Depression Factor Score (32 mg QD, Week 12 DB): −0.6 | Change from Baseline LS Mean: Marder's Disorganized Thought Factor Score (32 mg QD, Week 12 DB): −1.6 | Change from Baseline LS Mean: Marder's Positive Symptoms Factor Score (32 mg QD, Week 12 DB): −1.3 | Change from Baseline LS Mean: Marder's Uncontrolled Hostility/Excitement Factor Score (32 mg QD, Week 12 DB): 0.3 | Change from Baseline LS Mean: NSFS (ITT) (32 mg QD, Week 12 DB): −4.0 | Change from Baseline LS Mean: NSFS Emotional Experience Score (32 mg QD, Week 12 DB): −1.5 | Change from Baseline LS Mean: NSFS Emotional Expression Score (32 mg QD, Week 12 DB): −2.6 | Change from Baseline LS Mean: PANSS General Psychopathology Subscale (32 mg QD, Week 12 DB): −2.8 | Change from Baseline LS Mean: PANSS Negative Symptoms Subscale (32 mg QD, Week 12 DB): −4.2 | Change from Baseline LS Mean: PANSS Positive Symptoms Subscale (32 mg QD, Week 12 DB): −0.3 | Change from Baseline LS Mean: PANSS Total Score (32 mg QD, Week 12 DB): −7.1 | Effect Size (Cohen's d) vs Placebo: Marder's Anxiety/Depression Factor Score (32 mg QD, Week 12 DB): 0.05 | Effect Size (Cohen's d) vs Placebo: Marder's Disorganized Thought Factor Score (32 mg QD, Week 12 DB): 0.15 | Effect Size (Cohen's d) vs Placebo: Marder's Positive Symptoms Factor Score (32 mg QD, Week 12 DB): 0.14 | Effect Size (Cohen's d) vs Placebo: Marder's Uncontrolled Hostility/Excitement Factor Score (32 mg QD, Week 12 DB): −0.05 | Effect Size (Cohen's d) vs Placebo: NSFS (ITT) (32 mg QD, Week 12 DB): 0.13 | Effect Size (Cohen's d) vs Placebo: NSFS Emotional Experience Score (32 mg QD, Week 12 DB): 0.11 | Effect Size (Cohen's d) vs Placebo: NSFS Emotional Expression Score (32 mg QD, Week 12 DB): 0.17 | Effect Size (Cohen's d) vs Placebo: PANSS General Psychopathology Subscale (32 mg QD, Week 12 DB): 0.22 | Effect Size (Cohen's d) vs Placebo: PANSS Negative Symptoms Subscale (32 mg QD, Week 12 DB): 0.10 | Effect Size (Cohen's d) vs Placebo: PANSS Positive Symptoms Subscale (32 mg QD, Week 12 DB): 0.04 | Effect Size (Cohen's d) vs Placebo: PANSS Total Score (32 mg QD, Week 12 DB): 0.17 | Change from Baseline LS Mean: NSFS (mITT) (32 mg QD, Week 12 DB): −4.0 | Effect Size (Cohen's d) vs Placebo: NSFS (mITT) (32 mg QD, Week 12 DB): 0.13 | Effect Size (Cohen's w) vs Placebo: 20% reduction in NSFS responders (64 mg QD, Week 12 DB): 0.17 | Effect Size (Cohen's w) vs Placebo: 30% reduction in NSFS responders (64 mg QD, Week 12 DB): 0.09 | Number of Patients with 20% reduction in NSFS at Week 12 (64 mg QD, Week 12 DB): 48/122 | Number of Patients with 30% reduction in NSFS at Week 12 (64 mg QD, Week 12 DB): 24/122 | Change from Baseline LS Mean: Marder's Anxiety/Depression Factor Score (64 mg QD, Week 12 DB): −0.7 | Change from Baseline LS Mean: Marder's Disorganized Thought Factor Score (64 mg QD, Week 12 DB): −1.4 | Change from Baseline LS Mean: Marder's Positive Symptoms Factor Score (64 mg QD, Week 12 DB): −1.6 | Change from Baseline LS Mean: Marder's Uncontrolled Hostility/Excitement Factor Score (64 mg QD, Week 12 DB): 0.5 | Change from Baseline LS Mean: NSFS (ITT) (64 mg QD, Week 12 DB): −4.3 | Change from Baseline LS Mean: NSFS Emotional Experience Score (64 mg QD, Week 12 DB): −1.8 | Change from Baseline LS Mean: NSFS Emotional Expression Score (64 mg QD, Week 12 DB): −2.6 | Change from Baseline LS Mean: PANSS General Psychopathology Subscale (64 mg QD, Week 12 DB): −2.3 | Change from Baseline LS Mean: PANSS Negative Symptoms Subscale (64 mg QD, Week 12 DB): −4.7 | Change from Baseline LS Mean: PANSS Positive Symptoms Subscale (64 mg QD, Week 12 DB): −0.4 | Change from Baseline LS Mean: PANSS Total Score (64 mg QD, Week 12 DB): −7.4 | Effect Size (Cohen's d) vs Placebo: Marder's Anxiety/Depression Factor Score (64 mg QD, Week 12 DB): 0.09 | Effect Size (Cohen's d) vs Placebo: Marder's Disorganized Thought Factor Score (64 mg QD, Week 12 DB): 0.07 | Effect Size (Cohen's d) vs Placebo: Marder's Positive Symptoms Factor Score (64 mg QD, Week 12 DB): 0.24 | Effect Size (Cohen's d) vs Placebo: Marder's Uncontrolled Hostility/Excitement Factor Score (64 mg QD, Week 12 DB): −0.15 | Effect Size (Cohen's d) vs Placebo: NSFS (ITT) (64 mg QD, Week 12 DB): 0.21 | Effect Size (Cohen's d) vs Placebo: NSFS Emotional Experience Score (64 mg QD, Week 12 DB): 0.28 | Effect Size (Cohen's d) vs Placebo: NSFS Emotional Expression Score (64 mg QD, Week 12 DB): 0.17 | Effect Size (Cohen's d) vs Placebo: PANSS General Psychopathology Subscale (64 mg QD, Week 12 DB): 0.12 | Effect Size (Cohen's d) vs Placebo: PANSS Negative Symptoms Subscale (64 mg QD, Week 12 DB): 0.23 | Effect Size (Cohen's d) vs Placebo: PANSS Positive Symptoms Subscale (64 mg QD, Week 12 DB): 0.07 | Effect Size (Cohen's d) vs Placebo: PANSS Total Score (64 mg QD, Week 12 DB): 0.20 | Change from Baseline LS Mean: NSFS (mITT) (64 mg QD, Week 12 DB): −4.5 | Effect Size (Cohen's d) vs Placebo: NSFS (mITT) (64 mg QD, Week 12 DB): 0.26 | Effect size, change from Baseline in NSFS to Week 12 (US sites subgroup): 0.32 | Effect size, change from Baseline in NSFS to Week 12 (non-US sites subgroup): 0.20 | NSFS score, course in OL period (all treatment groups, OL period to Week 52): continued to improve
